Experimental findings from patent US20080311126A1, “Antisense Oligonucleotides Directed to Ribonucleotide Reducatase R2 and Uses Thereof in Combination Therapies for the Treatment of Cancer” (Genesense Technologies, Inc, priority 2004, published 2008) are described below.

Data set [1] deals with MDA-MB-231 human breast cancer cells. Kind of data set: MDA-MB-231 breast tumour xenograft in CD-1 nude mice. The format is in vivo. As to conditions: MDA-MB-231 (breast); Mouse CD-1. How it is done: MDA-MB-231 human breast cancer cells (1×10^7 cells in 100 μl of PBS) were subcutaneously injected into the right flank of 6-7 weeks old female CD-1 nude mice. After the size of tumour reached an approximate volume of 100 mm^3, 5 days post tumour cell injection, SEQ ID NO:1, or the scrambled control oligonucleotide (SEQ ID NO:3) were administered by bolus infusion into the tail vein every other day at 10 mg/kg. Control animals received saline alone for the same period. Antitumour effect of SEQ ID NO:1 was further compared to that of taxol or doxorubicin alone or in combination. Taxol was administered intravenously once a week at a dose of 10 mg/kg for three (FIG. 17A) or four weeks (FIG. 17C). Doxorubicin was administered intravenously once a week at a dose of 5 mg/kg for first three weeks (FIG. 17A) or for two weeks (FIG. 17C). All treatments were stopped at day 33 (FIG. 17A) or at day 26 (FIG. 17C), respectively. A day after the last treatment, tumours were excised from the animals and their weights were measured. […] In FIG. 17C, antitumour activities were estimated by the inhibition of tumour volume, which was measured with calipers. Each point represents mean tumour volume calculated from 10 animals per experimental group.

Data set [2] concerns Hela S3 cells. Kind of data set: Sensitization to chemotherapeutics by AS-II-2229B-20, relative colony forming efficiency. The data set is classed as cell-based, human. As to conditions: HeLa S3. Here is the method:
(§1) Colony forming efficiency was determined using standard protocols. Briefly, the cells were cultured for 24 hours at 37° C. in growth medium with 10% fetal bovine serum. The cells were washed in 5 ml phosphate buffered saline, pH 7.2, once prior to lipofectin +/−oligonucleotide treatment.
(§2) The test oligonucleotides were added to cell cultures in the presence of 2.5 μg of DOTMA/DOPE (Lipofectin; Life Technologies, Inc.) for four hours. The oligonucleotide was tested at 0.2 μM unless otherwise indicated. Controls were the cultures treated with lipofectin but without the oligonucleotide. After 4 hours the medium containing the oligonucleotide was removed and washed with 5 ml of growth medium. The cells were then cultured in growth medium containing 10% fetal bovine serum for seven to ten days. Surviving cells were visualized by methylene blue staining, and colonies were scored. In some experiments cell aliquots were removed from the culture and viability was determined using the trypan blue exclusion test. Results were analyzed as percent of surviving cells compared to control cells.
(§3) Treatment of human tumour cells with very low concentrations of short antisense sequences was tested to determine if these constructs could sensitize the tumour cells to inhibitory effects of other chemotherapeutic drugs.

The subject of a further data set is Hela 1 mM cells. The data set is described as above. The data set is classed as cell-based, human. As to conditions: HeLa 1 mM. Here is the method: as §1, §2, §3
In data set [3] the test system is HT-29 human colon cancer cells. Kind of data set: HT-29 colon tumour xenograft in CD-1 nude mice. The format is in vivo. How it is done:
HT-29 human colon cancer cells (3×10^6 cells in 100 μl of PBS) were subcutaneously injected into the right flank of 6-7 weeks old female CD-1 nude mice. After the size of tumour reached an approximate volume of 50 mm^3, 4 days post tumour cell injection, mitomycin C was administered by bolus infusion into the tail vein at days 4, 11 and 18 with a dose of 3.5 mg/kg/week. Antitumour effect of mitomycin C was further compared to that of SEQ ID NO:1 in combination with mitomycin C. SEQ ID NO:1 was administered by bolus infusion into the tail vein every day at 6 mg/kg and mitomycin C was administered intravenously at days 4, 11 and 18 with a dose of 3.5 mg/kg/week, one hour after the treatments with SEQ ID NO:1. Control animals received saline alone for the same period as SEQ ID NO:1. All treatments were stopped at day 22. A day after the last treatment, tumours were excised from the animals and their weights were measured.
HT-29 human colon cancer cells (3×10^6 cells in 100 μl of PBS) were subcutaneously injected into the right flank of 5-6 week old female CD-1 nude mice. After the size of tumour reached an approximate volume of 100 mm^3, 7 days post tumour cell injection, SEQ ID NO:1 was administered by bolus infusion into the tail vein every other day at 10 mg/kg. Control animals received saline alone for the same period. Antitumour effect of SEQ ID NO:1 was further compared to that of CPT-11 alone or that of SEQ ID NO:1 in combination with CPT-11. CPT-11 was administered intraperitoneally for 5 days in a row from […] with a dose of 20 mg/kg in 100 μl saline. All treatments were stopped at day 32. A day after the last treatment, tumours were excised from the animals and their weights were measured.
HT-29 human colon cancer cells (3×10^6 cells in 100 μl of PBS) were subcutaneously injected into the right flank of 6-7 week old female CD-1 nude mice. Treatments started at day 5 post tumour cell injection, SEQ ID NO:1 and 5-FU were administered as outlined below: • Groups and treatment: • Group 1. Saline treated group: saline:0.1 ml/2 days, i.v.; • Group 2. SEQ ID NO:1 treated group: 10 mg/kg/2 days in 100 μL saline, i.v.; • Group 3. 5-FU treated group:13 mg/kg/5 days/week (one week on and one week off), i.v.; • Group 4. SEQ ID NO:1 plus 5-FU treated group.
HT-29 human colon cancer cells (3×10^6 cells in 100 μl of PBS) were subcutaneously injected into the right flank of 5-6 week old female CD-1 nude mice. Treatments started 4 days post tumour cell injection, SEQ ID NO: 1 and Capecitabine were administered as outlined below: • Group and Treatment: • Group 1: treated with 0.2 ml vehicle solution for capecitabine, o.p.; • Group 2: treated with 0.1 ml saline, i.v.; • Group 3: treated with 359 mg/kg/day×5/w Capecitabine in 0.2 ml vehicle solution, o.p.; • Group 4: treated with 10 mg/kg/2 days SEQ ID NO:1 in 0.1 ml saline i.v.; • Group 5: treated with 10 mg/kg/2 days SEQ ID NO:1 in 0.1 ml saline, i.v. plus 359 mg/kg/day×5/w capecitabine in 0.2 ml vehicle solution, o.p.

Data set [4] has as its system T24 bladder cell carcinoma. Kind of data set: Relative colony forming efficiency (Example 17, Table 13). The format is cell-based, human. As to conditions: averages of 2-8 determinations. Put shortly: (§4)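 Phosphorothioate antisense oligodeoxynucleotides, at 0.2 μM unless otherwise indicated, were applied with 2.5 μg DOTMA/DOPE (Lipofectin) for 4 h. Colonies stained with methylene blue and scored, with viability sometimes checked by trypan blue exclusion. Values given as % inhibition of colony formation relative to lipofectin-only controls.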

Data set [5] has as its system MDA PaCa-2 pancreatic cell carcinoma. The description is as above. As to conditions: MIA PaCa-2 pancreatic cell carcinoma; averages of 2-8 determinations. The format is cell-based, human. The method, boiled down:
as §4

The test system of data set [6] is HCT116 colon cell carcinoma. The description is as above. Particulars: averages of 2-8 determinations. The format is cell-based, human. The method, boiled down: as §4
The subject of data set [7] is T-47D breast ductal carcinoma. The data set is described as above. The format is cell-based, human. As to conditions: averages of 2-8 determinations. Put shortly: as §4
Another data set relates to A549 lung cell carcinoma. Described as above. The format is cell-based, human. As to conditions: averages of 2-8 determinations. Put shortly: as §4
The test system of data set [8] is PC-3 prostrate cell adenocarcinoma. The description is as above. The format is cell-based, human. As to conditions: averages of 2-8 determinations. Put shortly: as §4
The subject of data set [9] is MDA-MB-231 breast cell adenocarcinoma. The data set is described as above. The format is cell-based, human. Particulars: averages of 2-8 determinations. The method, boiled down:
as §4

In data set [10] the test system is H596 lung adenosquamous carcinoma cells. The description is as above. The data set is classed as cell-based, human. Particulars: averages of 2-8 determinations. Put shortly: as §4
The test system of data set [11] is HepG2 hepatocellular carcinoma. The description is as above. The format is cell-based, human. Particulars: averages of 2-8 determinations. The method, boiled down:
as §4

Data set [12] relates to Hela S3 cells. Kind of data set: Relative colony forming efficiency, lipofectin +/- oligonucleotide 4 hours. The format is cell-based, human. Particulars: Hela S3 cervix carcinoma cells; averages of 2-8 determinations. The method, boiled down: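 HeLa S3 cells were exposed to phosphorothioate antisense oligonucleotide (0.2 μM unless stated) with lipofectin for 4 h, then grown 7–10 days in 10% FBS medium. Methylene blue-stained colonies were counted and expressed as percent survival relative to lipofectin-only controls.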

The mark [13] stands for this setting: drug 40 μM, with AS-II-2229B-20 0.02 μM.
Where [14] appears, read: drug 40 μM, without AS-II-2229B-20.
[15] abbreviates: drug 60 μM, with AS-II-2229B-20 0.02 μM.
Where [16] appears, read: drug 60 μM, without AS-II-2229B-20.
The mark [17] stands for this setting: drug 20 μM, with AS-II-2229B-20 0.02 μM.
Where [18] appears, read: drug 20 μM, without AS-II-2229B-20.

Oligonucleotides are written 5' to 3', each unit as a sugar letter and its base; * is a phosphorothioate linkage, no mark a phosphodiester; rarer units and linkages stand in square brackets, end groups in braces. Plain capitals give the bases only. d = 2'-deoxy (DNA)

Regarding `COc1cccc2c1C(=O)c1c(O)c3c(c(O)c1C2=O)C[C@@](O)(C(=O)CO)C[C@@H]3O[C@H]1C[C@H](N)[C@H](O)[C@H](C)O1` [Doxorubicin], in [1], the “Tumour weight as % of saline control” value is reported as 41%.
Take `CN(Cc1cnc2nc(N)nc(N)c2n1)c1ccc(C(=O)N[C@@H](CCC(=O)O)C(=O)O)cc1` [MTX, methotrexate]: the “Relative colony Forming Efficiency” value with Hela S3 cells [2] (setting [13]) turned out to be 25 ± 5; in the data set with Hela S3 cells [2] (setting [14]), 118 ± 32; with Hela S3 cells [2] (setting [15]) it was 0; with Hela S3 cells [2] (setting [16]) it was 116 ± 13; in the data set with Hela 1 mM cells (setting [13]) it was 6.5 ± 5.5; with Hela 1 mM cells (setting [14]), 28 ± 10. In addition, the “Relative colony Forming Efficiency” value with Hela 1 mM cells (setting [15]) was 3.5 ± 0.5; with Hela 1 mM cells (setting [16]), 12 ± 0.5.
On to `CO[C@@]12[C@H](COC(N)=O)C3=C(C(=O)C(C)=C(N)C3=O)N1C[C@@H]1N[C@@H]12` [Mitomycin C, reference compound], for which the “antitumour effect (tumour weight)” value in [3] (Example 12.1, mitomycin C 3.5 mg/kg/week i.v., SEQ ID NO:1 6 mg/kg every day i.v.) was “significant delay of tumour growth”. Further, the “Tumour weight as % of saline control” value in data set [3] (HT-29 (colon), Mouse CD-1, Mitomycin C study) came out at 15%.
As for “AS-II-1560.20 (antisense dG*dT*dA*dA*dG*dT*dC*dA*dC*dA*dG*dC*dC*dA*dG*dC*dC*dA*dG*dG)”, in data set [4], the “Reduced relative colony forming efficiency, T24 (% inhibition of colony forming ability)” value is 32.49%. Also, in [5], the “Reduced relative colony forming efficiency, MIA PaCa-2 (% inhibition of colony forming ability)” value was 33.3%. In data set [6], the “Reduced relative colony forming efficiency, HCT116 (% inhibition of colony forming ability)” value was 85.81%. For the same compound, the “Reduced relative colony forming efficiency, T-47D (% inhibition of colony forming ability)” value in data set [7] came out at 86.6%. In the data set on A549 lung cell carcinoma, the “Reduced relative colony forming efficiency, A549 (% inhibition of colony forming ability)” value is recorded as 84.19%. The “Reduced relative colony forming efficiency, PC-3 (% inhibition of colony forming ability)” value in data set [8] was determined as 78.37%. Moreover, the “Reduced relative colony forming efficiency, MDA-MB-231 (% inhibition of colony forming ability)” value in data set [9] worked out at 46.15%. For the same compound, the “Reduced relative colony forming efficiency, 11596 (% inhibition of colony forming ability)” value in [10] is listed as 71.16%. Also, in data set [11], the “Reduced relative colony forming efficiency, HepG2 (% inhibition of colony forming ability)” value was found to be 73.63%. For the same compound, in the data set on Hela S3 cells [12], the “Reduced relative colony forming efficiency, Hela S3 (% inhibition of colony forming ability)” value turned out to be 82.16%.
Regarding `O=C(O)C[C@H](NC(=O)CP(=O)(O)O)C(=O)O` [PALA, N-(phosphonacetyl)-L-aspartate], the “Relative colony Forming Efficiency” value in the data set with Hela S3 cells [2] (setting [17]) is given as 90 ± 10; in the data set on Hela S3 cells [2] (setting [18]), 350 ± 50; with Hela 1 mM cells (setting [17]) it was 108 ± 7.5; in the data set with Hela 1 mM cells (setting [18]), 377 ± 21; in the data set with Hela 1 mM cells (drug 30 μM, with AS-II-2229B-20 0.02 μM), 101 ± 2.0; in the data set with Hela 1 mM cells (drug 30 μM, without AS-II-2229B-20) it was 311 ± 9.5.
